Earlier results as cited in US20050228336A1, “Electrically assisted lidocaine and epinephrine delivery device having extended shelf-stability” (priority 2004, published 2005).

Conditions: iontophoresis in vitro across human skin

Row | Cumulative delivery compared with lidocaine | SMILES
1 | slightly greater delivery | CCN(CC)CCOC(=O)c1ccc(N)cc1 [procaine]
2 | slightly greater delivery | CCCN(CC)C(CC)C(=O)Nc1c(C)cccc1C (stereo not drawn) [etidocaine]
3 | slightly greater delivery | CCCNC(C)C(=O)Nc1ccccc1C (stereo not drawn) [prilocalne]
